Experimental data: patent US11518981B2, “Methods of enhancing engraftment activity of hematopoietic stem cells” (CHILDREN'S HOSPITAL MEDICAL CENTER, priority 2017, dated 2022)

Legend:
CD34^+38^−90^+ HSCs = experiment: cell cycle analysis (Ki-67 / Hoechst) of HSCs; assay type: cell-based, human
[1] = system: human MPB derived CD34^+ cells; experiment: multi-lineage reconstitution (myeloid / B-lymphoid) in bone marrow of NSG mice; assay type: in vivo
Source text: NOD.Cg-Prkdcscid Il2rgtm1Wjl/SzJ (NSG) mice were purchased from The Jackson Laboratory (Bar Harbor, Me.). All animals were bred and maintained in a specific pathogen-free environment and all experiments were approved by the Institutional Animal Care and Use (IACUC) Committee. Male and female NSG mice aged 8 to 14 weeks old were fed doxycycline chow (TestDiet; Modified Prolab RMH-1500 with 0.0625% doxycycline) a week prior to, during and for 2 weeks post irradiation. Human engraftment was analyzed in bone marrow (BM), via BM aspirates performed at 6 and 12 weeks from left and right femurs. After sacrifice at 24 weeks, marrow from all of the primary mice (1 T) was harvested. Peripheral blood analysis was also performed in some experiments. Secondary transplants (2 T) were performed after mouse CD45^+ cells were depleted from BM harvested from each 1 T mouse separately, using Biotin Rat Anti-Mouse CD45 (BD Biosciences 553078) and Streptavidin Particles Plus-DM (BD Biosciences 557812) and injected into one irradiated (280 cGy) secondary NSG mouse. For calculating competitive repopulating units (CRU) from limiting dilution transplantation, the L-CALC^TM software (Stem Cell Technologies) was used. All of the mice used for this study were randomly assigned to a treatment group. No animals were excluded from the analysis. PE-Cyanine 7 or APC-EFLUOR® 780, APC- or PE-conjugated antibodies directed to human CD34 (BD Biosciences 560710 or 555824), CD38 (eBiosciences, San Diego, Calif. 47-0389-42), CD90 (BioLegend 328120), CD45RA (eBiosciences 17-0458-42), CD49f (BD Biosciences 555736), CD45 (BD 55485 or Biolegend 304026), CD33 (eBiosciences 25-0338-42), CD19 (BD Biosciences 557791), or CD3 (BD Biosciences 555340). Cells ( 5×10^5-1×10^6) were used to label with antibodies as per manufacturer instructions with the appropriate isotype controls. For phospho-flow, primary antibodies phospho-[…]), phospho-p44/42 MAPK (ERK 1⁄2) […]; […]), and phospho-JNK […] PE conjugate; […]) (all from Cell Signaling) were used for staining overnight followed by wash and secondary antibody stain including Goat anti-Rabbit IgG (H+L) or Goat anti-Rabbit IgG (H+L) or Pacific Blue (P-10994) antibody. Apoptosis assay was performed using PE Annexin V Apoptosis Detection Kit (BD Biosciences 559763) according to the manufacturer's instructions. Total ROS and mitochondrial specific ROS were detected using 10 μM CM-H2DCFDA (ThermoFisher Scientific C6827) and 5 μM MITOSOXTM Red (Red Mitochondrial Superoxide Indicator) (ThermoFisher Scientific M36008) respectively, following manufacturer's instructions.

CD34^+38^−90^+ cells = experiment: Annexin V apoptosis assay in HSCs; assay type: cell-based, human; conditions: annexin V^+ CD34^+38^−90^+ cells
Source text: PE-Cyanine 7 or APC-EFLUOR® 780, APC- or PE-conjugated antibodies directed to human CD34 (BD Biosciences 560710 or 555824), CD38 (eBiosciences, San Diego, Calif. 47-0389-42), CD90 (BioLegend 328120), CD45RA (eBiosciences 17-0458-42), CD49f (BD Biosciences 555736), CD45 (BD 55485 or Biolegend 304026), CD33 (eBiosciences 25-0338-42), CD19 (BD Biosciences 557791), or CD3 (BD Biosciences 555340). Cells (˜5×10^5−1×10^6) were used to label with antibodies as per manufacturer instructions with the appropriate isotype controls. For phospho-flow, primary antibodies phospho-p38 (Thr180/Tyr182; 4092S), phospho-p44/42 MAPK (ERK ½) (Thr202/Tyr204; 4094S), and phospho-JNK (Thr183-Tyr185 PE conjugate; 5755S) (all from Cell Signaling) were used for staining overnight followed by wash and secondary antibody stain including Goat anti-Rabbit IgG (H+L) or Goat anti-Rabbit IgG (H+L) or Pacific Blue (P-10994) antibody. Apoptosis assay was performed using PE Annexin V Apoptosis Detection Kit (BD Biosciences 559763) according to the manufacturer's instructions. Total ROS and mitochondrial specific ROS were detected using 10 μM CM-H2DCFDA (ThermoFisher Scientific C6827) and 5 μM MITOSOX™ Red (Red Mitochondrial Superoxide Indicator) (ThermoFisher Scientific M36008) respectively, following manufacturer's instructions.

[2] = before the first HSC division in vitro (24 h)

SMILES: Cc1ccc(-n2nc(C(C)(C)C)cc2NC(=O)Nc2ccc(OCCN3CCOCC3)c3ccccc23)cc1 [p38i, 1-[5-tert-butyl-2-(4-methylphenyl)pyrazol-3-yl]-3-[4-(2-morpholin-4-ylethoxy)naphthalen-1-yl]urea]
- percentage of cells in the different phases of cell cycle (CD34^+38^−90^+ HSCs; HSCs transduced when actively cycling (RV)): no difference
- effect on increasing the G0 population (CD34^+38^−90^+ HSCs; after HSCs progressed through cell cycle): lost
- proportion of HSCs in the G0 quiescent phase (CD34^+38^−90^+ HSCs; [2]): significantly increased
- proportion of HSCs in the S-G2M phase (CD34^+38^−90^+ HSCs; [2]): decreased
- myeloid skewing of the transduced progeny ([1]; 24 week 1 T, cycling HSCs transduced (RV group)): somewhat reduced, but still quite significant
- multi-potentiality of the graft ([1]; 24 week 1 T, gene transfer in first 24 h (non-cycling HSCs), culture up to 96 h): restored the multi-potentiality of the graft at 24 week (1 T) to levels similar to 0 h controls
- lineage balance in transduced HSCs progeny ([1]; limiting dilution transplant, 42 h LV, 6 mo post 1 T): had less effect
- lineage balance in untransduced progeny ([1]; limiting dilution transplant, 42 h LV, 6 mo post 1 T, higher HSPC dosage): sufficient to restore lineage balance
- apoptosis in the HSC compartment (CD34^+38^−90^+ cells): no difference
